Source: ChEMBL document CHEMBL1201862, “PubChem BioAssay data set” (2004)
Calls of active or inactive are those of the source.

Assays:
T-cell = assay: loss of vesicle association with mouse CD8+ T cells – mouse 2C CD8+ T cells, flow cytometry, dose response (AID 485284); type: functional
Coagulation factor XII [1] = target: T1, Coagulation factor XII (Homo sapiens, UniProt P00748); assay: activated coagulation factor XII inhibitor potency, concentration-effect curve, cell-free (AID 716); type: functional
T1 sequence (P00748 whole entry): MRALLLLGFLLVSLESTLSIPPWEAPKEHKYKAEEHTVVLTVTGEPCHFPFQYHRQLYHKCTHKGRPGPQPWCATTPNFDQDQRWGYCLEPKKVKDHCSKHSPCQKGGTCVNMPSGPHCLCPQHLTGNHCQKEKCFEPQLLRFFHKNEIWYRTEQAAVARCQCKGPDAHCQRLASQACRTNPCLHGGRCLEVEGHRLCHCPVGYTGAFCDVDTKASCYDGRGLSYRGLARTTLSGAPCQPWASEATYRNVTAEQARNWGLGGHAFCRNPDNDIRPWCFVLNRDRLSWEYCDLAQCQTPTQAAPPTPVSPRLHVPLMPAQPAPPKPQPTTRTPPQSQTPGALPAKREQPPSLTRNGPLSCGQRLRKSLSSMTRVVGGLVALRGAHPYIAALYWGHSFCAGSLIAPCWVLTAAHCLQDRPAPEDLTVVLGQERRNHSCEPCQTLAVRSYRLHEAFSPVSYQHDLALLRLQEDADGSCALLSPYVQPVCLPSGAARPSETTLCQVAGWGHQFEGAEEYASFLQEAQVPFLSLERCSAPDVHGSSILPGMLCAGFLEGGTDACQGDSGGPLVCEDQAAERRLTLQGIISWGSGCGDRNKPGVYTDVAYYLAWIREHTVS

Trypsin = Trypsin (Sus scrofa, UniProt P00761); assay: trypsin protease activity blockade – biochemical, quenched peptide fluorescence, cherry-pick, selectivity assay for Rce1 protease inhibitor project, dose response (AID 488789)
[2] = NIH3T3 cell viability loss – ATP luminescence, mouse fibroblasts, counter-screen, dose response (AID 2010); type: functional, cell-based;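 note: cells exposed to compound for about 90 hours before reading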
[3] = Trypanosoma cruzi growth suppression in host cells – NIH3T3 host cells, beta-gal luminescence, confirmation (AID 2044); type: functional, cell-based;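 note: intracellular parasites grown in NIH/3T3 mouse fibroblasts as host cells; luminescent beta-galactosidase reporter signal from transgenic T. cruzi replicating inside host cells; inhibitors lower the luminescence signal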
CAAX prenyl protease 2 = target: T2, CAAX prenyl protease 2 (Saccharomyces cerevisiae S288c, UniProt Q03530); type: biochemical
T2 sequence (Q03530 whole entry): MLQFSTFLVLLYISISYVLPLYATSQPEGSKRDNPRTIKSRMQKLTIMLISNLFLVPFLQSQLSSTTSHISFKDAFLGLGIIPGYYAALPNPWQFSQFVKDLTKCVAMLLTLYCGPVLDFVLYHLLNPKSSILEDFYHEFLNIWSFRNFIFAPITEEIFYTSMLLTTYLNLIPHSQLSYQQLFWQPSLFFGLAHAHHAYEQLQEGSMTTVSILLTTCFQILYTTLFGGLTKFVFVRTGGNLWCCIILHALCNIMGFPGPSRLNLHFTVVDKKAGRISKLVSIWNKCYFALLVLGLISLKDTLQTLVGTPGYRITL

Coagulation factor XII [4] = target: T1, Coagulation factor XII; assay: Factor XIIa Dose Response Confirmation from Single Well HTS. [Related pubchem assays (depositor defined):AID701]; type: functional
HEK293 [5] = assay: inhibition of NOD1-driven NF-kB reporter – cell-based, luminescence, uHTS, primary screen (AID 1578); type: functional; settings: Homo sapiens
HEK293 [6] = assay: NOD2 signaling inhibitors in MDP-stimulated cells, cell-based, uHTS, luminescence (AID 2001); type: functional; settings: Homo sapiens
[7] = target: T3, Nucleotide-binding oligomerization domain-containing protein 2 (Homo sapiens, UniProt Q9HC29); assay: inhibition of NOD2-driven NF-kB reporter – cell-based, luminescence, uHTS, HEK293 (AID 1566); type: functional
[8] = target: Nucleotide-binding oligomerization domain-containing protein 1 (Homo sapiens, UniProt Q9Y239); assay: blockers of NOD1 pathway activity – revised, SAR follow-up (AID 2333); type: functional
HEK293 [9] = assay: cells; type: functional, cell-based; settings: Homo sapiens
HEK293 [10] = assay: cells; type: functional, cell-based; settings: Homo sapiens; remark: listed apart in the source
[11] = target: T3, Nucleotide-binding oligomerization domain-containing protein 2; assay: PubChem AID 2334; type: functional
Tumor necrosis factor = Tumor necrosis factor (Homo sapiens, UniProt P01375); assay: analog potency on TNFa NF-kB signaling – cell-based, revised, SAR follow-up (AID 2337); type: functional
HEK293 [12] = assay: cells; settings: Homo sapiens
HEK293 [13] = assay: cells; type: functional, cell-based; settings: Homo sapiens; remark: listed apart in the source
[14] = target: DNA dC->dU-editing enzyme APOBEC-3G (Homo sapiens, UniProt Q9HC16); type: functional;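 note: Dose-response counterscreen measuring inhibition of APOBEC3G DNA deaminase activity, run while confirming APOBEC3A inhibitors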
[15] = target: DNA dC->dU-editing enzyme APOBEC-3A (Homo sapiens, UniProt P31941); assay: Dose Response confirmation of small molecule APOBEC3A DNA Deaminase Inhibitors via a fluorescence-based single-stranded DNA deaminase assay. [Related pubchem assays (depositor defined):AID493011, AID493024]; type: functional
Sequence of DNA dC->dU-editing enzyme APOBEC-3A (P31941 whole entry): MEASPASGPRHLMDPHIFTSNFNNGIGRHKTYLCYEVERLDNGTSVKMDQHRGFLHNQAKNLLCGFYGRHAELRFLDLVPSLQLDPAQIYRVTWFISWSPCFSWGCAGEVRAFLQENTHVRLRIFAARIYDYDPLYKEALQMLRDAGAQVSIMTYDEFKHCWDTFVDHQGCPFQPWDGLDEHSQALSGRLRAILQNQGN

T3 sequence (Q9HC29 whole entry, the tested form may be a part): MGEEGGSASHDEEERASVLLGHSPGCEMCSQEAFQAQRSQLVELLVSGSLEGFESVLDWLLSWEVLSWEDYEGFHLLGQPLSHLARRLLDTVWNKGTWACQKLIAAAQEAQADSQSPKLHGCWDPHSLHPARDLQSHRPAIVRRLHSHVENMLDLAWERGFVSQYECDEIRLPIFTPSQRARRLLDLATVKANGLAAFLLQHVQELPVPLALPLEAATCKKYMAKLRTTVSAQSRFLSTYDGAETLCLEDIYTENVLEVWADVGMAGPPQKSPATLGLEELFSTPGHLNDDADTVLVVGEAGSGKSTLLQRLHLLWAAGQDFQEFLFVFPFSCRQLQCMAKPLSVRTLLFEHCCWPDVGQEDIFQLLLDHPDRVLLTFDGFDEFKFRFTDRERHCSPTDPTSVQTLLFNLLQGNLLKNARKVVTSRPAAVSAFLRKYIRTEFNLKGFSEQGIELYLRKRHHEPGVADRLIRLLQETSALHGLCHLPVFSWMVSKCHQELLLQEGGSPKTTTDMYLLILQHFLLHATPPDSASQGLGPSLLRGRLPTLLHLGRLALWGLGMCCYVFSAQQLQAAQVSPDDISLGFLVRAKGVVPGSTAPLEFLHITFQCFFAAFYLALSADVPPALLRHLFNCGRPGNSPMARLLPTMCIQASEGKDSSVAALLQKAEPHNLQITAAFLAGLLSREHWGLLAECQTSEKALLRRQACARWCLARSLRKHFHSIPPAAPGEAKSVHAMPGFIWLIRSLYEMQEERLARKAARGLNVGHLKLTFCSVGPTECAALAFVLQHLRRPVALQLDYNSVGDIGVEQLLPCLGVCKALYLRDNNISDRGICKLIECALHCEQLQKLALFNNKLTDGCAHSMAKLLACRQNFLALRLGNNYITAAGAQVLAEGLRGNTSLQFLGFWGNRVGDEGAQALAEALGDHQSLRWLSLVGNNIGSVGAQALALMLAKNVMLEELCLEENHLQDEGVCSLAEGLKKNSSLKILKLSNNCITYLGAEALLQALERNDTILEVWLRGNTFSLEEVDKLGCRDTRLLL
Sequence of Nucleotide-binding oligomerization domain-containing protein 1 (Q9Y239 whole entry, the tested form may be a part): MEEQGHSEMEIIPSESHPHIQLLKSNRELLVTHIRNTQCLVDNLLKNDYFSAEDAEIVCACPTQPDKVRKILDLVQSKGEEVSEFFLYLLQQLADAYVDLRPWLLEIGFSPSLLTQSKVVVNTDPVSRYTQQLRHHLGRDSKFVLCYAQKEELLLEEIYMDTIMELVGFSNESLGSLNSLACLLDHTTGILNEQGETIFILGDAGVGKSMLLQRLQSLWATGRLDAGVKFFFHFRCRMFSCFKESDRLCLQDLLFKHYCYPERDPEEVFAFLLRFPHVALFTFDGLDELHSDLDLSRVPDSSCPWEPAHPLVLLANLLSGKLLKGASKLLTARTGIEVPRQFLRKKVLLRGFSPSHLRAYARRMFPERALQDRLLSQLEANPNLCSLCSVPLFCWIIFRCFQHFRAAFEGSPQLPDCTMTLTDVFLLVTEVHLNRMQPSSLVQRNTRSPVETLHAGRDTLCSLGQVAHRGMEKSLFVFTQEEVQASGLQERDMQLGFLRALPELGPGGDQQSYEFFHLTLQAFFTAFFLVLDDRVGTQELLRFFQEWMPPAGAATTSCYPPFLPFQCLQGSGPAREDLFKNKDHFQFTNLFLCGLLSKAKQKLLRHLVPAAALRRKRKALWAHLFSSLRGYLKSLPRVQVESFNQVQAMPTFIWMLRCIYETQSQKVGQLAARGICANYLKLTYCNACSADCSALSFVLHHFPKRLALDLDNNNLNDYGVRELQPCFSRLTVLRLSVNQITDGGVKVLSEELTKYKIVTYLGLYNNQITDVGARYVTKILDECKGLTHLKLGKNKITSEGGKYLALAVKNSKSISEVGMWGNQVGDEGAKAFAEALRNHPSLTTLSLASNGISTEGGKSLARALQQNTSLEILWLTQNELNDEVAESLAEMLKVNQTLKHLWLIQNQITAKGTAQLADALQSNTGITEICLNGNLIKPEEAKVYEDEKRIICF
Sequence of Trypsin (P00761 whole entry): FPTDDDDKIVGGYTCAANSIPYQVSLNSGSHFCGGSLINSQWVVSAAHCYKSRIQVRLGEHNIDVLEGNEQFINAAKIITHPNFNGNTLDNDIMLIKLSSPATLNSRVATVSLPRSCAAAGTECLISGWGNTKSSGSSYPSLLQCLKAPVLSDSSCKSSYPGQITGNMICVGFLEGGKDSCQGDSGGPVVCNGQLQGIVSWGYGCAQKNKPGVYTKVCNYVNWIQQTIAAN
Sequence of Tumor necrosis factor (P01375 whole entry): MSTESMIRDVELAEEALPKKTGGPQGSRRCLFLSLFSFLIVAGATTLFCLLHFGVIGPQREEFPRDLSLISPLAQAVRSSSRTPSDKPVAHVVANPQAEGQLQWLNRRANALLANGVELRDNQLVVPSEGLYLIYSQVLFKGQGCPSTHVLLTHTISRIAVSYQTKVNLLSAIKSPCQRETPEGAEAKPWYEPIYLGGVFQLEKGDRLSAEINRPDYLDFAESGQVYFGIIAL
Sequence of DNA dC->dU-editing enzyme APOBEC-3G (Q9HC16 whole entry): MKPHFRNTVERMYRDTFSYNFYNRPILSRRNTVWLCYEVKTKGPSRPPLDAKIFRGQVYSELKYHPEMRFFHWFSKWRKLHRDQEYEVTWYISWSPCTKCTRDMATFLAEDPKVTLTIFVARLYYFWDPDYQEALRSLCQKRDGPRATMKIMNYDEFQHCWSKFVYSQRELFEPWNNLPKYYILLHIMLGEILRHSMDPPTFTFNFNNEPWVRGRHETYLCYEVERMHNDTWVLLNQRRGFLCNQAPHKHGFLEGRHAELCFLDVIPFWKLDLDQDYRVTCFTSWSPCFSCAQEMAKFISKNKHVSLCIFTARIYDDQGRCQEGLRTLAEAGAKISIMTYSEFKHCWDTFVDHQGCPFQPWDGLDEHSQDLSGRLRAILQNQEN

SMILES: CCC(C(=O)Nc1ccccc1)c1ccccc1 (centres undefined)
- EC50 (T-cell): 0.0882 µM (active)

SMILES: COc1ccc(C)cc1NC(=O)CCC(=O)Nc1ccc2nc(N3CCN(C)CC3)cc(C)c2c1
- IC50 (Coagulation factor XII [1]): > 50 µM (inactive)
- AC50 (Trypsin): 19.7 µM (active)
- EC50 [2]: 8.73 µM (active)
- EC50 [3]: 0.635 µM (active)
- AC50 (CAAX prenyl protease 2): 16.4 µM (active)

SMILES: CC1(C)c2ssc(=S)c2-c2ccccc2N1C(=O)c1ccco1
- IC50 (Coagulation factor XII [4]): > 50 µM (inactive)

SMILES: Cc1cc(Cl)ccc1OCC(=O)Nc1ccccc1NS(=O)(=O)c1cccs1
- EC50 (HEK293 [5]): 5.15 µM (active)
- IC50 (HEK293 [6]): 15.8 µM (inactive)
- EC50 [7]: 6.8 µM (active)
- IC50 [8]: 4.55 µM (active)
- IC50 (HEK293 [9]): > 20 µM (inactive)
- IC50 (HEK293 [10]): > 20 µM (inactive)
- IC50 [11]: 8.21 µM (active)
- IC50 (Tumor necrosis factor): 12.3 µM (active)
- IC50 (HEK293 [12]): > 20 µM (inactive)
- IC50 (HEK293 [13]): > 20 µM (inactive)

SMILES: CC(Oc1ccc(Br)cc1)C(=O)Nc1cc(Cl)ccc1N1CCN(C)CC1 (centres undefined)
- IC50 [14]: 4.26 µM (active)
- IC50 [15]: 3.15 µM (active)
